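Values below derive from 48-hour exposures of cells grown in 96-well plates, with endpoints linearly interpolated between the two concentrations bracketing the appropriate inhibition level. The concentration for 50% growth inhibition is given as GI50.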 Calls of active or inactive are those of the source. Rule as the data show it: active = GI50 up to about 1.1 µM and inactive = higher.
Experiments:
Test in all cases: growth of human tumour cells (NCI), 48 h
786-0 = tested on: 786-0
A498 = tested on: A498
A549 = tested on: A549
CAKI-1 = tested on: CAKI-1
CCRF-CEM = tested on: CCRF-CEM
COLO 205 = tested on: COLO 205
DLD-1 = tested on: DLD-1
DMS-114 = tested on: DMS-114
DMS-273 = tested on: DMS-273
EKVX = tested on: EKVX
HCC 2998 = tested on: HCC 2998
HCT-116 = tested on: HCT-116
HCT-15 = tested on: HCT-15
HL-60 = tested on: HL-60
HOP-62 = tested on: HOP-62
HT-29 = tested on: HT-29
IGROV-1 = tested on: IGROV-1
K562 = tested on: K562
KM-20L2 = tested on: KM-20L2
KM12 = tested on: KM12
LOX IMVI = tested on: LOX IMVI
LXFL 529 = tested on: LXFL 529
M14 = tested on: M14
M19-MEL = tested on: M19-MEL
MOLT-4 = tested on: MOLT-4
Malme-3M = tested on: Malme-3M
NCI-H23 = tested on: NCI-H23
NCI-H460 = tested on: NCI-H460
NCI-H522 = tested on: NCI-H522
OVCAR-3 = tested on: OVCAR-3
OVCAR-4 = tested on: OVCAR-4
OVCAR-5 = tested on: OVCAR-5
OVCAR-8 = tested on: OVCAR-8
RPMI-8226 = tested on: RPMI-8226
SF-268 = tested on: SF-268
SF-295 = tested on: SF-295
SF-539 = tested on: SF-539
SK-MEL-28 = tested on: SK-MEL-28
SK-MEL-2 = tested on: SK-MEL-2
SK-MEL-5 = tested on: SK-MEL-5
SK-OV-3 = tested on: SK-OV-3
SN12C = tested on: SN12C
SNB-19 = tested on: SNB-19
SNB-75 = tested on: SNB-75
SNB-78 = tested on: SNB-78
SW-620 = tested on: SW-620
TK-10 = tested on: TK-10
U-251 = tested on: U-251
UACC-257 = tested on: UACC-257
UACC-62 = tested on: UACC-62
UO-31 = tested on: UO-31
XF498 = tested on: XF498
ACHN = tested on: ACHN
HOP-92 = tested on: HOP-92
NCI-H226 = tested on: NCI-H226
RXF 393 = tested on: RXF 393

Measured: GI50

CCOc1ccccc1/N=N/c1ccc2oc(=O)c(C(C)=O)cc2c1
> 100 µM: HCT-15
inactive: 786-0 54.6 µM | A498 > 100 µM | A549 > 100 µM | CAKI-1 > 100 µM | CCRF-CEM > 100 µM | COLO 205 > 100 µM | DLD-1 > 100 µM | DMS-114 > 100 µM | DMS-273 > 100 µM | EKVX 45.9 µM | HCC 2998 > 100 µM | HCT-116 > 100 µM | HL-60 > 100 µM | HOP-62 > 100 µM | HT-29 > 100 µM | IGROV-1 > 100 µM | K562 > 100 µM | KM-20L2 > 100 µM | KM12 > 100 µM | LOX IMVI > 100 µM | LXFL 529 > 100 µM | M14 > 100 µM | M19-MEL > 100 µM | MOLT-4 > 100 µM | Malme-3M > 100 µM | NCI-H23 > 100 µM | NCI-H460 > 10 µM | NCI-H522 58.9 µM | OVCAR-3 > 100 µM | OVCAR-4 > 100 µM | OVCAR-5 > 100 µM | OVCAR-8 > 100 µM | RPMI-8226 > 100 µM | SF-268 > 100 µM | SF-295 41.4 µM | SF-539 > 100 µM | SK-MEL-28 > 100 µM | SK-MEL-2 71 µM | SK-MEL-5 > 100 µM | SK-OV-3 > 100 µM | SN12C > 100 µM | SNB-19 55.5 µM | SNB-75 16 µM | SNB-78 24.4 µM | SW-620 > 100 µM | TK-10 30.5 µM | U-251 43.7 µM | UACC-257 > 100 µM | UACC-62 > 100 µM | UO-31 > 100 µM | XF498 30.1 µM

Cc1nnc2c3nnc(C)n3c3ccccc3n12
> 100 µM: HCT-15
inactive: 786-0 > 100 µM | A498 > 100 µM | A549 > 100 µM | ACHN > 100 µM | CAKI-1 > 100 µM | CCRF-CEM > 100 µM | COLO 205 > 100 µM | DLD-1 > 100 µM | DMS-114 > 100 µM | DMS-273 > 100 µM | EKVX > 100 µM | HCC 2998 > 100 µM | HCT-116 > 100 µM | HOP-62 > 100 µM | HOP-92 > 100 µM | HT-29 > 100 µM | IGROV-1 > 100 µM | K562 > 100 µM | KM-20L2 > 100 µM | KM12 > 100 µM | LOX IMVI > 100 µM | LXFL 529 > 100 µM | M14 > 100 µM | MOLT-4 > 100 µM | Malme-3M > 100 µM | NCI-H226 > 100 µM | NCI-H23 > 100 µM | NCI-H460 > 100 µM | NCI-H522 > 100 µM | OVCAR-3 > 100 µM | OVCAR-4 > 100 µM | OVCAR-5 > 100 µM | OVCAR-8 > 100 µM | RPMI-8226 > 100 µM | RXF 393 > 100 µM | SF-268 > 100 µM | SF-295 > 100 µM | SF-539 > 100 µM | SK-MEL-28 > 100 µM | SK-MEL-2 > 100 µM | SK-MEL-5 > 100 µM | SK-OV-3 > 100 µM | SN12C > 100 µM | SNB-19 > 100 µM | SNB-75 > 100 µM | SNB-78 > 100 µM | SW-620 > 100 µM | TK-10 > 100 µM | U-251 > 100 µM | UACC-257 > 100 µM | UACC-62 > 100 µM | UO-31 > 100 µM | XF498 > 100 µM
